Read-outs that look alike come from different tables or passages of the source.
How the values were obtained:
Format in all cases: in vivo
Boophilus microplus = Boophilus microplus injection test; conditions: for pest or weed control at 0.02 mg: Rhipicephalus microplus, 168 h
Procedure, shortened: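 Compound dissolved in DMSO; 1 μl injected into the abdomen of engorged adult female ticks, five per group, kept in climate-controlled room. Efficacy scored after 7 days from fertile egg laying (100% = no fertile eggs; 0% = all fertile), with unclear eggs held ~42 days until hatching.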

Ctenocephalides felis [1] = experiment: Ctenocephalides felis oral test; conditions: application rate 100 ppm in citrated cattle blood; after 2 days
Procedure, shortened: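 About 20 unfed adult cat fleas fed via parafilm membrane on citrated cattle blood containing compound (DMSO formulation). Kill % scored after 2 days, 100% meaning all fleas dead.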

Lucilia cuprina = Lucilia cuprina test; conditions: application rate 100 ppm; L1 larvae; after 2 days
Procedure, shortened: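 About 20 first-instar larvae were placed in vessels of minced horsemeat with compound at the desired concentration. Compound was dissolved in DMSO and diluted in water. Percent kill scored after 2 days.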

Musca domestica = Musca domestica test; conditions: application rate 100 ppm; adult houseflies; after 2 days
Description: (§1) Solvent: dimethyl sulfoxide
To produce a suitable active compound formulation, 10 mg of active compound are mixed with 0.5 ml of dimethyl sulfoxide, and the concentrate is diluted with water to the desired concentration.
Vessels containing a sponge treated with sugar solution and the desired concentration of active compound formulation are populated with 10 adult houseflies (Musca domestica).
After 2 days, the kill in % is determined. 100% means that all of the flies have been killed; 0% means that none of the flies have been killed.

Meloidogyne incognita = Meloidogyne incognita test; conditions: application rate 20 ppm; after 14 days
Description: Meloidogyne incognita Test
Solvent: 125.0 parts by weight of acetone
To produce a suitable active compound formulation, 1 part by weight of active compound is mixed with the stated amount of solvent and the concentrate is diluted to the desired concentration with water.
Vessels are filled with sand, active compound solution, an egg/larvae suspension of the southern root-knot nematode (Meloidogyne incognita) and lettuce seeds. The lettuce seeds germinate and the plants develop. The galls develop on the roots.
After 14 days, the nematicidal efficacy in % is determined by the formation of galls. 100% means that no galls were found; 0% means that the number of galls on the treated plants corresponds to the untreated control.

Phaedon cochleariae = Phaedon cochleariae spray test; conditions: for pest or weed control at 500 g/ha: Phaedon cochleariae, 168 h, read-out: efficacy
Procedure, shortened: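 Chinese cabbage leaf discs sprayed with compound formulated in acetone/DMF and water with 1000 ppm emulsifier, then infested with mustard beetle larvae once dry. Percent larval kill scored after 7 days (100% = all dead, 0% = none).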

Spodoptera frugiperda = Spodoptera frugiperda spray test; conditions: for pest or weed control at 500 g/ha: Spodoptera frugiperda, 168 h, read-out: efficacy
Procedure, shortened: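 Maize leaf discs sprayed with compound formulated in acetone/dimethylformamide and diluted in water with 1000 ppm alkylaryl polyglycol ether emulsifier. Once dry, discs are infested with fall armyworm caterpillars. Efficacy in % read after 7 days: 100% all caterpillars killed, 0% none killed.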

Myzus persicae = Myzus persicae spray test; conditions: after 5 days
Description: Myzus persicae—Spray Test
Solvent: 78 parts by weight of acetone • • 1.5 parts by weight of dimethylformamide
(§2) Emulsifier: alkylaryl polyglycol ether
(§3) To produce a suitable active compound formulation, 1 part by weight of active compound is dissolved with the specified parts by weight of solvent and made up to the desired concentration with water containing an emulsifier concentration of 1000 ppm. To produce further test concentrations, the formulation is diluted with emulsifier-containing water.
Discs of Chinese cabbage leaves (Brassica pekinensis) infested by all stages of the green peach aphid (Myzus persicae) are sprayed with an active compound formulation of the desired concentration.
After 5 days, the efficacy in % is determined. 100% means that all the aphids have been killed; 0% means that no aphids have been killed.

Tetranychus urticae = Tetranychus urticae spray test, OP-resistant; conditions: application rate 500 g/ha; after 6 days
Procedure, shortened: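 Bean leaf discs carrying all stages of OP-resistant Tetranychus urticae were sprayed with compound in acetone/dimethylformamide diluted in water containing alkylaryl polyglycol ether emulsifier (1000 ppm). Mortality scored after 6 days as % efficacy (100% = all mites killed).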

Ctenocephalides felis [2] = experiment: Ctenocephalides felis in vitro contact test with adult cat fleas; conditions: application rate 5 μg/cm^2 (=500 g/ha); after 48 h
Procedure, shortened: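 Glass tubes coated with acetone solutions of compound (900 ppm giving 5 μg/cm^2), dried, then held 5-10 adult cat fleas at room temperature and ambient humidity. After 48 h, dead or moribund fleas were scored; efficacy expressed as percent affected.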

Rhipicephalus sanguineus = Rhipicephalus sanguineus in vitro contact test with adult brown dog ticks; conditions: application rate 5 μg/cm^2 (=500 g/ha); after 48 h
Procedure, shortened: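 Glass tubes coated with compound in acetone (900 ppm solution giving 5 μg/cm^2), then 5-10 adult ticks held in the dark at room temperature and ambient humidity. At 48 h, ticks placed on a 45-50° C. hotplate for up to 5 min; motionless or uncoordinated ones scored dead/moribund, giving % efficacy.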

Nilaparvata lugens = Nilaparvata lugens test; conditions: application rate 500 g/ha; after 4 days
Description: (§4) Solvent: 78.0 parts by weight of acetone • • 1.5 parts by weight of dimethylformamide
as §2, §3
Rice plants (Oryza sativa) are sprayed with the active compound formulation of the desired concentration and then infected with the brown planthopper (Nilaparvata lugens).
After 4 days, the efficacy in % is determined. 100% means that all of the planthoppers have been killed; 0% means that none of the planthoppers have been killed.

[3] = test system: Anopheles gambiae strain RSPH (homozygot kdr); experiment: Anopheles test (ANPHGB surface treatment); conditions: read-out: efficacy (mortality in %)
Description: Anopheles Test (ANPHGB Surface Treatment)
(§5) Solvent: acetone+2000 ppm rapeseed oil methyl ester (RME)
(§6) To produce an appropriate active compound formulation, the active compound is dissolved in the solvent (2 mg/ml). The active compound formulation is pipetted onto a glazed tile and, after it has dried off, adult mosquitoes of the species Anopheles gambiae strain RSPH (homozygot kdr) are placed onto the treated tile. The exposure time is 30 minutes.
(§7) 24 hours after contact with the treated surface, mortality in % is determined. 100% means that all mosquitoes have been killed; 0% means that none of the mosquitoes have been killed.

[4] = test system: Anopheles funestus strain FUMOZ-R; experiment: Anopheles test (ANPHFU surface treatment); conditions: read-out: efficacy (mortality in %)
Description: Anopheles Test (ANPHFU Surface Treatment)
as §5
as §6, with “funestus” for “gambiae”, “FUMOZ-R (Hunt et al., Med Vet Entomol. 2005 Sep.; 19 (3):271-5)” for “RSPH (homozygot kdr)”
as §7

[5] = test system: Aedes aegypti strain MONHEIM; experiment: Aedes test (AEDSAE surface treatment); conditions: read-out: efficacy (mortality in %)
Description: Aedes Test (AEDSAE Surface Treatment)
as §5
as §6, with “Aedes aegypti” for “Anopheles gambiae”, “MONHEIM” for “RSPH (homozygot kdr)”, “minutes. 24 hours after contact with the treated surface, mortality in % is determined. 100% means that all mosquitoes have been killed; 0% means that none of the mosquitoes have been killed.” for “minutes.”

Nezara viridula = Nezara viridula spray test; conditions: application rate 500 g/ha; after 4 days
Description: Nezara viridula—Spray Test
as §4, §2, §3
Barley plants (Hordeum vulgare) infected with larvae of the Southern green shield bug (Nezara viridula) are srayed with an active compound formulation of the desired concentration.
After 4 days, the efficacy in % is determined. 100% means that all of the shield bugs have been killed; 0% means that none of the shield bugs have been killed.

[6] = test system: cattle ticks (Boophilus microplus) Parkhurst strain, SP-resistant; experiment: Boophilus microplus dip test; conditions: application rate 100 ppm, after 7 days
Description: Boophilus microplus—Dip Test
Test animals: cattle ticks (Boophilus microplus) Parkhurst strain, SP-resistant
as §1
10 mg of active compound are dissolved in 0.5 ml of dimethyl sulfoxide. To produce a suitable formulation, the active compound solution is diluted with water to the concentration desired in each case.
This active compound formulation is pipetted into tubes. 8-10 engorged adult female cattle ticks (Boophilus microplus) are transferred into a further tube with holes. The tube is immersed into the active compound formulation, and all the ticks are completely wetted. After the liquid has run out, the ticks are transferred on filter disks into plastic dishes and stored in a climate-controlled room.
Efficacy is assessed after 7 days by laying of fertile eggs. Eggs which are not visibly fertile are stored in a climate-controlled cabinet until the larvae hatch after about 42 days. An efficacy of 100% means that none of the ticks has laid any fertile eggs; 0% means that all the eggs are fertile.

[7] = application rate 20 μg/animal, after 7 days
[8] = application rate 500 g/ha, after 7 days
[9] = application rate 20 mg/m^2, exposure 30 minutes, 24 hours after contact
[10] = application rate 100 mg/m^2, exposure 30 minutes, 24 hours after contact

Structure (SMILES) | efficacy (laying of fertile eggs) (Boophilus microplus; [7]) [%] | efficacy (kill in %) (Ctenocephalides felis [1]) [%] | efficacy (kill in %) (Lucilia cuprina) [%] | efficacy (Phaedon cochleariae; [8]) [%] | efficacy (Spodoptera frugiperda; [8]) [%] | efficacy (Myzus persicae; application rate 500 g/ha) [%] | efficacy (Tetranychus urticae) [%] | efficacy (fleas dead or moribund) (Ctenocephalides felis [2]) [%] | efficacy (ticks dead or moribund) (Rhipicephalus sanguineus) [%] | efficacy (Nilaparvata lugens) [%] | also measured
CC(=O)N1CCC(Oc2ccc(COc3ccc(Cl)c4ccccc34)cn2)C1 (stereo not shown) [Example 4] | 100 | 100 | 100 | 100 | 100 | – | – | – | – | – | efficacy (kill in %) (Musca domestica): 80%; nematicidal efficacy (formation of galls) (Meloidogyne incognita): 90%
CON(C)CCOc1ccc(COc2ccc(F)c(-c3cccc(OC(F)(F)F)c3)c2)cn1 [Example 10] | – | – | – | 100 | 100 | 90 | 100 | – | – | – | –
CON(C)CCOc1cnc(COc2ccc3oc4ccccc4c3c2)c(F)c1 [Example 20] | 100 | 95 | 100 | 100 | 100 | – | – | 100 | 100 | 100 | –
CON(C)CCOc1cnc(COc2cccc3c(Cl)c(Cl)ccc23)c(F)c1 [Example 22, 2-[(6-{[(5,6-dichloro-1-naphthyl)oxy]methyl}-5-fluoropyridin-3-yl)oxy]-N-methoxy-N-methylethanamine] | – | 90 | 100 | – | – | – | – | 100 | 100 | 90 | pest or weed control at 0.02 mg (Boophilus microplus; application rate 20 μg/animal, after 7 days, read-out: efficacy (laying of fertile eggs)): 100%; pest or weed control at 500 g/ha (Phaedon cochleariae; [8]): 100%; pest or weed control at 500 g/ha (Spodoptera frugiperda; [8]): 100%; mortality at 20 mg/m2 [3, 9]: 80 to 100%; mortality at 100 mg/m2 [3, 10]: 80 to 100%; mortality at 20 mg/m2 [4, 9]: 80 to 100%; mortality at 100 mg/m2 [4, 10]: 80 to 100%; mortality at 20 mg/m2 [5, 9]: 80 to 100%; mortality at 100 mg/m2 [5, 10]: 80 to 100%
CC(C)N(CCOc1cnc(COc2cccc3c(Cl)c(Cl)ccc23)c(F)c1)C(C)C [Example 39] | 90 | – | – | 100 | 100 | – | – | 100 | – | – | efficacy (Myzus persicae; application rate 100 g/ha): 90%
CON(C)CCOc1cnc(COc2ccc(Cl)c(-c3cccc(OC(F)(F)F)c3)c2)c(F)c1 [Example 48] | 100 | – | 100 | 100 | 100 | 90 | 100 | 100 | 100 | – | –
CON(C)CCOc1cnc(COc2ccc(F)c(-c3cccc(OC(F)(F)F)c3)c2)c(F)c1 [Example 50] | – | – | – | 100 | 100 | 90 | 100 | – | – | 100 | efficacy (Nezara viridula): 100%
CON(C)CCOc1cnc(COc2cccc(-c3cccc(OC(F)(F)F)c3)c2)c(F)c1 [Example 53] | 100 | – | 100 | 100 | 100 | 90 | 100 | 100 | 100 | 100 | –
CON(C)CCOc1cnc(COc2ccc(F)c(-c3cccc(OC(F)(F)F)c3)c2)c(C)c1 [Example 59] | 100 | – | 100 | 83 | 100 | 90 | 100 | 100 | 100 | – | –
CON(C)CCOc1cnc(COc2ccc(Cl)c3ccccc23)nc1 [Example 99, 2-[(2-{[(4-chloro-1-naphthyl)oxy]methyl}pyrimidin-5-yl)oxy]-N-methoxy-N-methylethanamine] | – | – | 100 | – | – | – | – | 100 | 100 | – | efficacy (laying of fertile eggs) [6]: 100%; pest or weed control at 0.02 mg (Boophilus microplus; read-out: efficacy (laying of fertile eggs), application rate 20 μg/animal, after 7 days): 100%; pest or weed control at 500 g/ha (Phaedon cochleariae): 100%; pest or weed control at 500 g/ha (Spodoptera frugiperda): 100%; mortality at 20 mg/m2 [3]: 80 to 100%; mortality at 20 mg/m2 [4]: 80 to 100%; mortality at 20 mg/m2 [5]: 80 to 100%
